Assay results: ChEMBL document CHEMBL4725363 (J Med Chem, 2020)
Each block holds one molecule with its values, some of them ahead of it. Active and inactive are the calls of the source. No cut-off for these calls is given here.

Legend:
[1] = target: cGMP-specific 3',5'-cyclic phosphodiesterase (Homo sapiens, UniProt O76074); assay: Inhibition of human PDE5A1 (535-860 residues) expressed in Escherichia coli BL21 incubated for 15 mins using [3H]-cGMP as substrate by liquid scintillation counting method
[2] = target: DNA topoisomerase 2-alpha (Homo sapiens) (UniProt P11388); assay: Inhibition of Top2 (unknown origin) mediated supercoiled DNA relaxation at 100 uM
[3] = target: T1, DNA topoisomerase 1 (Homo sapiens) (UniProt P11387); assay: Inhibition of Top (unknown origin) mediated supercoiled DNA relaxation at 100 uM
T1 sequence (whole entry): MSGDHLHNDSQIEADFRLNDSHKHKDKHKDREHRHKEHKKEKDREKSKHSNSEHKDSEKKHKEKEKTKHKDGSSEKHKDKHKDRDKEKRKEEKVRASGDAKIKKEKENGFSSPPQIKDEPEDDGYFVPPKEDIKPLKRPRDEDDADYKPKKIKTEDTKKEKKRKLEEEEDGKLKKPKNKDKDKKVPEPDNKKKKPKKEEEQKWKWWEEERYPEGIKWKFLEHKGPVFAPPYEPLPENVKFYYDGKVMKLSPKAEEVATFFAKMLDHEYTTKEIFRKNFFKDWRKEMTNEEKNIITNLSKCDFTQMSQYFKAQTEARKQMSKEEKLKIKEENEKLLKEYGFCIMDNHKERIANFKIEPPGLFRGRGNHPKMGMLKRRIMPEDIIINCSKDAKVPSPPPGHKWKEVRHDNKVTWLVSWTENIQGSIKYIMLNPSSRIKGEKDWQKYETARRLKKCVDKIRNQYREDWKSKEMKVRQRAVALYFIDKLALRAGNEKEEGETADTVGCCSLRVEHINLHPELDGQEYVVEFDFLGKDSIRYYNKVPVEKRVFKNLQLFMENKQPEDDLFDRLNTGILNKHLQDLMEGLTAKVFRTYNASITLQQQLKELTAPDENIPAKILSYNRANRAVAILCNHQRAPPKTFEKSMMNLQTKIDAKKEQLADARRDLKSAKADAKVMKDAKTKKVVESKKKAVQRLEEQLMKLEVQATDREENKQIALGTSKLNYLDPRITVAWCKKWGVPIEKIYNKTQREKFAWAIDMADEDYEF

[4] = target: Dual specificity calcium/calmodulin-dependent 3',5'-cyclic nucleotide phosphodiesterase 1B (Homo sapiens, UniProt Q01064); assay: Inhibition of human PDE1B (10-487 residues) expressed in Sf9 cells incubated for 15 mins using [3H]-cGMP as substrate by liquid scintillation counting method
[5] = target: High affinity 3',5'-cyclic-AMP phosphodiesterase 7A (Homo sapiens, UniProt Q13946); assay: Inhibition of PDE7A1 catalytic domain (130 to 482 residues) (unknown origin) using [3H]-cAMP as substrate after 15 mins by liquid scintillation counting method
[6] = target: cAMP and cAMP-inhibited cGMP 3',5'-cyclic phosphodiesterase 10A (Homo sapiens, UniProt Q9Y233); assay: Inhibition of human PDE10A catalytic domain (449 to 770 residues) using [3H]-cAMP as substrate after 15 mins by liquid scintillation counting method
[7] = target: Dual 3',5'-cyclic-AMP and -GMP phosphodiesterase 11A (Homo sapiens, UniProt Q9HCR9); assay: Inhibition of PDE11A catalytic domain (unknown origin) using [3H]-cAMP or [3H]-[…] as substrate after 15 mins by liquid scintillation counting method
[8] = tested on: COc1ccc2c3c([nH]c2c1)[C@@H]1N(CC3)C(=O)c2c(OC)cccc2N1C; assay: Negative allosteric modulator activity at human PDE5A1 (535-860 residues) expressed in Escherichia coli BL21 assessed as Km for cGMP at 25 nM incubated for 15 mins using [3H]-cGMP as substrate by liquid scintillation counting method (reference value: 4.22 +/- 0.45 uM); details: filed as negative allosteric modulator
[9] = tested on: COc1ccc2c3c([nH]c2c1)[C@@H]1N(CC3)C(=O)c2c(OC)cccc2N1C; assay: Negative allosteric modulator activity at human PDE5A1 (535-860 residues) expressed in Escherichia coli BL21 assessed as Km for cGMP at 50 nM incubated for 15 mins using [3H]-cGMP as substrate by liquid scintillation counting method (reference value: 4.22 +/- 0.45 uM); details: filed as negative allosteric modulator
[10] = tested on: COc1ccc2c3c([nH]c2c1)[C@@H]1N(CC3)C(=O)c2c(OC)cccc2N1C; assay: Negative allosteric modulator activity at human PDE5A1 (535-860 residues) expressed in Escherichia coli BL21 assessed as Km for cGMP at 100 nM incubated for 15 mins using [3H]-cGMP as substrate by liquid scintillation counting method (reference value: 4.22 +/- 0.45 uM); details: filed as negative allosteric modulator
[11] = tested on: COc1ccc2c3c([nH]c2c1)[C@@H]1N(CC3)C(=O)c2c(OC)cccc2N1C; assay: Negative allosteric modulator activity at human PDE5A1 (535-860 residues) expressed in Escherichia coli BL21 assessed as Km for cGMP at 200 nM incubated for 15 mins using [3H]-cGMP as substrate by liquid scintillation counting method (reference value: 4.22 +/- 0.45 uM); details: filed as negative allosteric modulator
[12] = tested on: COc1ccc2c3c([nH]c2c1)[C@@H]1N(CC3)C(=O)c2c(OC)cccc2N1C; assay: Negative allosteric modulator activity at human PDE5A1 (535-860 residues) expressed in Escherichia coli BL21 assessed as Kcat for cGMP at 25 nM incubated for 15 mins using [3H]-cGMP as substrate by liquid scintillation counting method (reference value: 2.53 +/- 0.24 /s); details: filed as negative allosteric modulator
[13] = tested on: COc1ccc2c3c([nH]c2c1)[C@@H]1N(CC3)C(=O)c2c(OC)cccc2N1C; assay: Negative allosteric modulator activity at human PDE5A1 (535-860 residues) expressed in Escherichia coli BL21 assessed as Kcat for cGMP at 50 nM incubated for 15 mins using [3H]-cGMP as substrate by liquid scintillation counting method (reference value: 2.53 +/- 0.24 /s); details: filed as negative allosteric modulator
[14] = tested on: COc1ccc2c3c([nH]c2c1)[C@@H]1N(CC3)C(=O)c2c(OC)cccc2N1C; assay: Negative allosteric modulator activity at human PDE5A1 (535-860 residues) expressed in Escherichia coli BL21 assessed as Kcat for cGMP at 100 nM incubated for 15 mins using [3H]-cGMP as substrate by liquid scintillation counting method (reference value: 2.53 +/- 0.24 /s); details: filed as negative allosteric modulator
[15] = tested on: COc1ccc2c3c([nH]c2c1)[C@@H]1N(CC3)C(=O)c2c(OC)cccc2N1C; assay: Negative allosteric modulator activity at human PDE5A1 (535-860 residues) expressed in Escherichia coli BL21 assessed as Kcat for cGMP at 200 nM incubated for 15 mins using [3H]-cGMP as substrate by liquid scintillation counting method (reference value: 2.53 +/- 0.24 /s); details: filed as negative allosteric modulator
[16] = tested on: COc1ccc2c3c([nH]c2c1)[C@@H]1N(CC3)C(=O)c2c(OC)cccc2N1C; assay: Negative allosteric modulator activity at human PDE5A1 (535-860 residues) expressed in Escherichia coli BL21 assessed as Kcat/Km ratio for cGMP at 25 nM incubated for 15 mins using [3H]-cGMP as substrate by liquid scintillation counting method (reference value: 0.6 +/- 0.04 /s/microM); details: filed as negative allosteric modulator
[17] = tested on: COc1ccc2c3c([nH]c2c1)[C@@H]1N(CC3)C(=O)c2c(OC)cccc2N1C; assay: Negative allosteric modulator activity at human PDE5A1 (535-860 residues) expressed in Escherichia coli BL21 assessed as Kcat/Km ratio for cGMP at 50 nM incubated for 15 mins using [3H]-cGMP as substrate by liquid scintillation counting method (reference value: 0.6 +/- 0.04 /s/microM); details: filed as negative allosteric modulator
[18] = tested on: COc1ccc2c3c([nH]c2c1)[C@@H]1N(CC3)C(=O)c2c(OC)cccc2N1C; assay: Negative allosteric modulator activity at human PDE5A1 (535-860 residues) expressed in Escherichia coli BL21 assessed as Kcat/Km ratio for cGMP at 100 nM incubated for 15 mins using [3H]-cGMP as substrate by liquid scintillation counting method (reference value: 0.6 +/- 0.04 /s/microM); details: filed as negative allosteric modulator
[19] = tested on: COc1ccc2c3c([nH]c2c1)[C@@H]1N(CC3)C(=O)c2c(OC)cccc2N1C; assay: Negative allosteric modulator activity at human PDE5A1 (535-860 residues) expressed in Escherichia coli BL21 assessed as Kcat/Km ratio for cGMP at 200 nM incubated for 15 mins using [3H]-cGMP as substrate by liquid scintillation counting method (reference value: 0.6 +/- 0.04 /s/microM); details: filed as negative allosteric modulator
[20] = species: Homo sapiens; assay: Selectivity index, ratio of IC50 for human PDE6C to IC50 for human PDE5A1
[21] = Inhibition of human PDE5A1 D563A mutant expressed in Escherichia coli BL21 incubated for 15 mins using [3H]-cGMP as substrate by liquid scintillation counting method

DNA topoisomerase 2-alpha (Homo sapiens), sequence (P11388 whole entry): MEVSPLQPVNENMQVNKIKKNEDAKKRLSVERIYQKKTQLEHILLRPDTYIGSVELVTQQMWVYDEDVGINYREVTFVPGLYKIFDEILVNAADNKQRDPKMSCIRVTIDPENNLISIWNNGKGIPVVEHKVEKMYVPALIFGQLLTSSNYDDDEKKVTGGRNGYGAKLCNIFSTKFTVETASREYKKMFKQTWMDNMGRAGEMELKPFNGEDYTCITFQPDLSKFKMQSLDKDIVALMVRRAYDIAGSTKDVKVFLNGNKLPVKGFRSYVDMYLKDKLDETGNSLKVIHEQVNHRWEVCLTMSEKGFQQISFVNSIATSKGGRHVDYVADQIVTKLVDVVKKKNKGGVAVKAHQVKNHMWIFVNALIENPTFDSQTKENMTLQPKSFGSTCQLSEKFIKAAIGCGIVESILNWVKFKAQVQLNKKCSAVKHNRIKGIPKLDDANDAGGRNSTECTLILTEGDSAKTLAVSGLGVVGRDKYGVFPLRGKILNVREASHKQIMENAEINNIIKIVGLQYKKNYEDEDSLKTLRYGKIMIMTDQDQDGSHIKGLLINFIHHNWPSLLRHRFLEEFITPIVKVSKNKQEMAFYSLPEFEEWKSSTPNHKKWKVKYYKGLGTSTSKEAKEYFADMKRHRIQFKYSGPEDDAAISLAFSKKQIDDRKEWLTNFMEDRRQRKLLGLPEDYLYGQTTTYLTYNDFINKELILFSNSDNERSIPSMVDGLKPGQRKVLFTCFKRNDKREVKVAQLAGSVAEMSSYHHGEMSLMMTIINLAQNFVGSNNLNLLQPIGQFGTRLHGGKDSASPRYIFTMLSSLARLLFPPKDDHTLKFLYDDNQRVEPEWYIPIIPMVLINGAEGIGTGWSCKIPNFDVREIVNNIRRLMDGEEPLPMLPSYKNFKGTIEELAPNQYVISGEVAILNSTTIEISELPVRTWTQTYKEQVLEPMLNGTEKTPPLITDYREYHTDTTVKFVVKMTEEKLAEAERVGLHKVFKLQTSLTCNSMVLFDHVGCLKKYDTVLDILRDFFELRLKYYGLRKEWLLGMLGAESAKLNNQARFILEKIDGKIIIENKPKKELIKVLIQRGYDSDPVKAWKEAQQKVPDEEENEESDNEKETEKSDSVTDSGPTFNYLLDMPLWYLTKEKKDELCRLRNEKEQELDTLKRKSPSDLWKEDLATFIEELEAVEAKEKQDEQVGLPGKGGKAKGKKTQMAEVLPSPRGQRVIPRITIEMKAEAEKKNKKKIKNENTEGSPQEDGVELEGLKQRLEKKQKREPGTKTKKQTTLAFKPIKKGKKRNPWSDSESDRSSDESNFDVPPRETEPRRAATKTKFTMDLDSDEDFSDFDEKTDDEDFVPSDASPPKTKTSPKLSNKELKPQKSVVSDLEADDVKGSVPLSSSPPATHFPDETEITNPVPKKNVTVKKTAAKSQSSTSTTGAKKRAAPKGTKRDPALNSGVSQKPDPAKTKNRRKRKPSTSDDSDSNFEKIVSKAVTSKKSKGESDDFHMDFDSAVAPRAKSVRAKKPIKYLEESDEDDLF
cAMP and cAMP-inhibited cGMP 3',5'-cyclic phosphodiesterase 10A, sequence (Q9Y233 whole entry, the tested form may be a part): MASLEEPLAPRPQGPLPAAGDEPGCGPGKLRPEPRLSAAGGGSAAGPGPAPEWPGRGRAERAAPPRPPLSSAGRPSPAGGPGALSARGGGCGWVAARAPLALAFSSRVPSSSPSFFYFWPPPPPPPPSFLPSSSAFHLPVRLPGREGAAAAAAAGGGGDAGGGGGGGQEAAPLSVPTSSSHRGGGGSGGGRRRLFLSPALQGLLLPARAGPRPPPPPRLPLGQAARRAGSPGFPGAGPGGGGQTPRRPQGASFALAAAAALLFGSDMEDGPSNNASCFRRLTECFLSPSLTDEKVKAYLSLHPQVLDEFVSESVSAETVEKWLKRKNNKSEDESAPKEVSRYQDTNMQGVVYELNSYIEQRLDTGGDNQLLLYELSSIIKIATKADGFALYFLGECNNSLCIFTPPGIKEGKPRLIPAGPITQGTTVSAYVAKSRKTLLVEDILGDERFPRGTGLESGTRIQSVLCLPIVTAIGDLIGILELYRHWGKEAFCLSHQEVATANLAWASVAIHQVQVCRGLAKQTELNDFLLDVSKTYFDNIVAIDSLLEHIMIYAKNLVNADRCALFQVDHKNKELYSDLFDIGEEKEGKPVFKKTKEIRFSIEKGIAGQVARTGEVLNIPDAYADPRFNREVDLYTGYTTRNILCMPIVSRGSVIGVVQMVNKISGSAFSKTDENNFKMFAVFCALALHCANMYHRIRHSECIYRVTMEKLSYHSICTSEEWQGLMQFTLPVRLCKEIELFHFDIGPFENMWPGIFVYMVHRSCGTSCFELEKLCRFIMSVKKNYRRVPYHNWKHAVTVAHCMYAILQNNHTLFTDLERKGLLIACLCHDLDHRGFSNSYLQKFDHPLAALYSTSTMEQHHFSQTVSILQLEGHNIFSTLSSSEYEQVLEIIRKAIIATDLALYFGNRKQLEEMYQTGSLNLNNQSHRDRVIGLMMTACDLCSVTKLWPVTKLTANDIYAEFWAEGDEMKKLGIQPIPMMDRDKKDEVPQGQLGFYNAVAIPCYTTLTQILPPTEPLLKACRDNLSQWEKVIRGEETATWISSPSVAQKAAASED
Dual specificity calcium/calmodulin-dependent 3',5'-cyclic nucleotide phosphodiesterase 1B, sequence (Q01064 whole entry, the tested form may be a part): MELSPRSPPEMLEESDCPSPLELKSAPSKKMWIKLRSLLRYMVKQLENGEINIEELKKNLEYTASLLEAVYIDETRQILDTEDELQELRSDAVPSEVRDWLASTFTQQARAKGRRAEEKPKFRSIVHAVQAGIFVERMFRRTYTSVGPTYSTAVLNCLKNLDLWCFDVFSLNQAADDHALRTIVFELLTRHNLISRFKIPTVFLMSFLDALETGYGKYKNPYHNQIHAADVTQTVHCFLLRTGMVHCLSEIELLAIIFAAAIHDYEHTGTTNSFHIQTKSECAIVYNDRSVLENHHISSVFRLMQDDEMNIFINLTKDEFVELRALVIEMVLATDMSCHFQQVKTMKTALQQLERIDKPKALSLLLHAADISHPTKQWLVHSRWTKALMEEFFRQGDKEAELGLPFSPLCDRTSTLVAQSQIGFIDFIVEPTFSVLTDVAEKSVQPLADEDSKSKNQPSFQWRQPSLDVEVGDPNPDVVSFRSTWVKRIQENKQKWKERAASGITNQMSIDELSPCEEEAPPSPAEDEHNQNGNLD
High affinity 3',5'-cyclic-AMP phosphodiesterase 7A, sequence (Q13946 whole entry, the tested form may be a part): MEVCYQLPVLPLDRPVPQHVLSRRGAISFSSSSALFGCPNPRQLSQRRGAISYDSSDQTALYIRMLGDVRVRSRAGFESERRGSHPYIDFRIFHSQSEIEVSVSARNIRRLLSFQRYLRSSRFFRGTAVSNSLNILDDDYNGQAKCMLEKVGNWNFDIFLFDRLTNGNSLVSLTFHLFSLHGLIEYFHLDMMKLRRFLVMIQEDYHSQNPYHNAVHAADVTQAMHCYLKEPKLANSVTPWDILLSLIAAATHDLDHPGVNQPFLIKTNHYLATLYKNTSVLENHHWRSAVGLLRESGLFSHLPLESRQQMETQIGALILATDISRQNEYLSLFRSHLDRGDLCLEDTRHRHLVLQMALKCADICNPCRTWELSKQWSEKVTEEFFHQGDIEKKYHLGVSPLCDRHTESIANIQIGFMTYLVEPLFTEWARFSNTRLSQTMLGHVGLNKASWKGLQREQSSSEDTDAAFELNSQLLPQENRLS
Dual 3',5'-cyclic-AMP and -GMP phosphodiesterase 11A, sequence (Q9HCR9 whole entry, the tested form may be a part): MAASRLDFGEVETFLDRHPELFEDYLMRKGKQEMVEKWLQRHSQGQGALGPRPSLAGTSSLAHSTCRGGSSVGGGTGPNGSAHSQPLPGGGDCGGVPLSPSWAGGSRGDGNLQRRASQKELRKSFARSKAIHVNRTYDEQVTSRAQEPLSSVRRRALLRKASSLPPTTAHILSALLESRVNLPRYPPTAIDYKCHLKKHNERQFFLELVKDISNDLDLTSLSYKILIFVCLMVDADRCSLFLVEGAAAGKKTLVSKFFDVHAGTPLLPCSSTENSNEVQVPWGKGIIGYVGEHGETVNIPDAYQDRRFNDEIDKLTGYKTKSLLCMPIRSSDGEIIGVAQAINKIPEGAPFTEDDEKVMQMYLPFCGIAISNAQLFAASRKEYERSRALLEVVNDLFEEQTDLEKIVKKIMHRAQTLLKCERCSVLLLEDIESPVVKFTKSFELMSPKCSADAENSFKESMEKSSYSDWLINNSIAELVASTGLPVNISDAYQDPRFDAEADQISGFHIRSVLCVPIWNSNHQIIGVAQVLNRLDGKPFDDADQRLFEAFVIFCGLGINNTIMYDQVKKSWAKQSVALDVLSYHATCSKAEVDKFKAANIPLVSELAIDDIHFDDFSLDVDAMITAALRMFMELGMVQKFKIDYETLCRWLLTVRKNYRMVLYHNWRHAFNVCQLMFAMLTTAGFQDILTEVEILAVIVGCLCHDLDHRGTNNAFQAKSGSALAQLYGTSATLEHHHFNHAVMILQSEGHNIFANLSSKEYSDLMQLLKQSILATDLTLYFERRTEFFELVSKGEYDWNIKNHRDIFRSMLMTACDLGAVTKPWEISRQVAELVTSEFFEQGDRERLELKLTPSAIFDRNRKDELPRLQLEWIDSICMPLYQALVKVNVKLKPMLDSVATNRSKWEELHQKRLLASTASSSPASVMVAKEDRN

Molecule: COc1ccc2c3c([nH]c2c1)C1N(CC3)C(=O)c2c(OC)cccc2N1C (stereo not drawn)
IC50 [1]: 53 nM

Molecule: CN1c2ccccc2C(=O)N2CCc3c([nH]c4ccccc34)[C@@H]21 [EVODIAMINE]
IC50 [1]: > 50000 nM

Molecule: COc1cccc2c1C(=O)N1CCc3c([nH]c4cccc(OC)c34)[C@H]1N2C
IC50 [1]: 35 nM | inhibition [2]: inactive | inhibition [3]: inactive | IC50 [4]: > 20000 nM | IC50 [5]: > 20000 nM | IC50 [6]: 2200 nM | IC50 [7]: > 20000 nM

Molecule: cGMP-specific 3',5'-cyclic phosphodiesterase (Homo sapiens) (from UniProt O76074)
Km [8]: 11.8 µM | Km [9]: 11.8 µM | Km [10]: 13.2 µM | Km [11]: 12.5 µM | kcat [12]: 1.99 s⁻¹ | kcat [13]: 1.51 s⁻¹ | kcat [14]: 1.48 s⁻¹ | kcat [15]: 1.05 s⁻¹ | kcat/Km [16]: 170000 M⁻¹ s⁻¹ | kcat/Km [17]: 130000 M⁻¹ s⁻¹ | kcat/Km [18]: 110000 M⁻¹ s⁻¹ | kcat/Km [19]: 84000 M⁻¹ s⁻¹

Molecule: CCCc1nn(C)c2c(=O)[nH]c(-c3cc(S(=O)(=O)N4CCN(C)CC4)ccc3OCC)nc12
IC50 [21]: 1.2 nM

Molecule: COc1ccc2c3c([nH]c2c1)[C@H]1N(CC3)C(=O)c2c(OC)cccc2N1C
IC50 [1]: > 10000 nM

Further lines, results first:

IC50 [1]: 1700 nM
Molecule: CN1c2cccc(O)c2C(=O)N2CCc3c([nH]c4ccccc34)C21 (stereo not drawn)

IC50 [1]: 2600 nM
Molecule: COc1cccc2c1C(=O)N1CCc3c([nH]c4ccccc34)[C@@H]1N2C

IC50 [1]: 110 nM | Ratio IC50 [20]: > 190
Molecule: COc1cccc2c1C(=O)N1CCc3c([nH]c4ccccc34)[C@H]1N2C

IC50 [1]: 420 nM
Molecule: CN1c2cccc(O)c2C(=O)N2CCc3c([nH]c4ccccc34)[C@H]21

IC50 [1]: 340 nM | Ratio IC50 [20]: > 64
Molecule: COc1cccc2c1C(=O)N1CCc3c([nH]c4ccccc34)C1N2C (stereo not drawn)

IC50 [1]: 1300 nM
Molecule: CN1c2ccccc2C(=O)N2CCc3c([nH]c4ccccc34)[C@H]21

IC50 [1]: > 10000 nM
Molecule: CN1c2cccc(O)c2C(=O)N2CCc3c([nH]c4ccccc34)[C@@H]21

IC50 [1]: 2100 nM
Molecule: CN1c2ccccc2C(=O)N2CCc3c([nH]c4ccccc34)C21 (stereo not drawn)
